The assay deals with T1, 3-phosphoinositide-dependent protein kinase 1 (PDK1) (Homo sapiens, UniProt O15530).
T1 construct: gene PDPK1; PH domain, amino-acids 411-552
T1 sequence (O15530 411-552): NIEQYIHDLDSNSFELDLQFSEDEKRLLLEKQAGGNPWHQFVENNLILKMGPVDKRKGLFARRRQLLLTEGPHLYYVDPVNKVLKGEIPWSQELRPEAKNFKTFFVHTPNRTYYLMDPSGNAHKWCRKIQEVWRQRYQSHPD
Description: isothermal titration calorimetry with purified recombinant PH domain, […] °C, four experiments, n = […]. It counts as binding.

Take `O=P(O)(O)O[C@@H]1[C@@H](OP(=O)(O)O)[C@H](OP(=O)(O)O)[C@H](OCc2ccccc2)[C@H](OP(=O)(O)O)[C@H]1OP(=O)(O)O` [2-O-Bn-InsP5, 2-O-benzyl-myo-inositol 1,3,4,5,6-pentakisphosphate]: the dissociation constant Kd is 109 ± 44 nM.

Usually Kd stands for a measure of binding affinity in units of concentration.

For the origin of these results see publication PMC4873738, “A Small Molecule Inhibitor of PDK1/PLCγ1 Interaction Blocks Breast and Melanoma Cancer Cell Invasion” (Scientific Reports, 2016).
